In patent US20120177693A1, “DEEP LUNG PULMONARY DELIVERY OF TREPROSTINIL” (Aradigm Corporation, priority 2008, published 2012):
Several values for one entry are separate records, joined by “and”; a condition that tells them apart may be missing. Equal values may be shown once.

Columns and labels:
[1] = Gamma scintigraphy of 99mTc-DTPA radiolabeled treprostinil sodium inhaled via AERx Essence System or Nebu-Tec Optineb nebulizer, two-way crossover, 14 healthy male subjects; format: in vivo, human; settings: for Calculated Lung Dose: monosodium salt; for Dose (calculated dose to lung): Median
Description: This was an open label study conducted in a single-center, using a randomized, two-way crossover design. Sixteen healthy adult male subjects were to be enrolled to receive study treatments. Upon provision of written informed consent, each study candidate underwent a pre-study evaluation and screening to determine eligibility to participate.
On each of two dosing days, eligible subjects underwent dosing with ^99mTc-labeled treprostinil sodium using either the AERx Essence System or the Nebu-Tec Optineb nebulizer. Following their initial study dose, subjects underwent a washout period of approximately 48 hours before completing a second (crossover) study dose.
Immediately following each study dose, subjects underwent gamma scintigraphy and multiple samplings of venous blood to characterize treprostinil lung deposition and plasma pharmacokinetics.
Subjects also underwent a Krypton-81m (^81mKr) gas ventilation imaging procedure. This procedure could have been performed on any dosing day followed by a 30 minute washout before any of the aerosol dosing procedures, if there were logistical/scheduling problems, ventilation imaging could have been done after dosing. Alternatively the ^81mKr ventilation scan could have been performed on a separate visit. Additionally transmission images were also acquired this could have been performed on any dosing day prior to any of the aerosol dosing procedures or on a separate visit
A single “bulk” treprostinil sodium formulation (600 μg/mL) was used for both the Nebu-Tec Optineb nebulizer and the AERx Essence. The bulk drug solutions were diluted by the addition of ^99mTc-DTPA (2000 MBq/mL) at a ratio of 19:1, i.e. 0.05 mL of ^99mTc-DTPA was added to 0.950 mL of bulk drug solution. Each mL of the radiolabeled drug solutions therefore contained 100 MBq of ^99mTc-DTPA and 570 μg of treprostinil. The radiolabel ^99mTc as ^99mTc-DTPA was acquired from an approved supplier (i.e., the Medical Physics Department, University Hospital of Wales, Heath, Cardiff [Manufacturers License Number: MS/IMP18523]).
In this study, the radiolabel marker (^99mTc-DTPA) deposition profiles obtained following administration of a radiolabeled treprostinil sodium formulation will be evaluated using gamma to assess the performance for the two delivery systems. Gamma scintigraphy offers a precise and accurate method of evaluating the deposition of an inhaled radiolabeled aerosol in the oropharynx and lung.
To compare the emitted dose, delivered lung dose, and the central-to-peripheral (sC/P) lung deposition of radiolabeled treprostinil sodium delivered via the AERx Essence System versus the Nebu-Tec Optineb nebulizer using gamma scintigraphy.
In addition the following secondary efficacy variables were determined, the dose (μg) of treprostinil deposited in the lung, the percent dose (emitted and loaded) of radiolabeled treprostinil sodium in the oropharyngeal region from both devices, the percent loaded dose remaining in both devices and associated equipment e.g. mouthpiece.
Scintigraphic data were used to determine the fraction of the loaded dose delivered to the lung which was subsequently utilised to estimate the lung dose in terms of μg of Treprostinil. For AERx, the calculation of lung dose was derived by normalising the emitted dose to lung for the fraction (%) of the loaded dose retained post-administration i.e. within the device and dosage forms. The actual dose within the AERx strips (a single dose consisted of two strips) was calculated from the nominal treprostinil concentration adjusted for the actual concentration determined by HPLC assay of the stock radiolabeled drug solutions on each dosing day (see Table 14.2.1.5).
The Optineb device contained a drug reservoir (nebuliser cup) from which each dose (six separate puffs) was metered. To determine the dose available to the subject an in vitro test to collect a single emitted dose (ED) was performed for each device following subject dosing.

[2] = male, human, in vivo
[3] = Safety and tolerability of inhaled treprostinil sodium (adverse events, laboratory, vital signs, ECG, spirometry), 14 healthy male subjects

## CCCCC[C@H](O)CC[C@@H]1[C@H]2Cc3cccc(OCC(=O)[O-])c3C[C@H]2C[C@H]1O.[Na+] [treprostinil, (1R,2R,3aS,9aS)-[[2,3,3a,4,9,9a-Hexahydro-2-hydroxyl-1-[(3S)-3-hydroxyoctyl]-1H-benz[f]inden-5-yl]oxy]acetic acid monosodium salt]
[1]; AERx vs nebulizer
  Greater treprostinil lung dose for AERx than for the nebulizer: 20%
[1]; via AERx, Max, listed as Treprostinil
  Calculated Lung Dose: 30.76 µg
[1]; via AERx, Max
  Calculated Lung Dose: 30.756 µg
[1]; via AERx, Mean, listed as Treprostinil
  Calculated Lung Dose: 26.07 µg
[1]; via AERx, Mean
  Calculated Lung Dose: 26.07 µg and 26.072 µg
[1]; via AERx
  Dose (calculated dose to lung): 27.383 µg
[1]; via AERx, Min, listed as Treprostinil
  Calculated Lung Dose: 12.77 µg
[1]; via AERx, Min
  Calculated Lung Dose: 12.770 µg
[1]; via Optineb, Max, listed as Treprostinil
  Calculated Lung Dose: 30.69 µg
[1]; via Optineb, Max
  Calculated Lung Dose: 30.691 µg
[1]; via Optineb, Mean, listed as Treprostinil
  Calculated Lung Dose: 19.58 µg
[1]; via Optineb, Mean
  Calculated Lung Dose: 19.58 µg and 19.579 µg
[1]; via Optineb
  Dose (calculated dose to lung): 18.470 µg
[1]; via Optineb, Min, listed as Treprostinil
  Calculated Lung Dose: 9.30 µg
[1]; via Optineb, Min
  Calculated Lung Dose: 9.296 µg
[2]
  Adverse events considered possibly related to the study medication: 15
  Adverse events considered probably related to study medication: 11
  Adverse events considered unlikely related to the study medication: 1
  Adverse events recorded as mild in intensity: 23
  Adverse events recorded as moderate in intensity: 4
  Number of Subjects (% brackets) with CHEST DISCOMFORT: 2 (14.3)
  Number of Subjects (% brackets) with COUGH: 6 (42.9)
  Number of Subjects with CHEST DISCOMFORT, relationship POSSIBLE: 1
  Number of Subjects with CHEST DISCOMFORT, relationship PROBABLE: 1
  Number of Subjects with CHEST DISCOMFORT, relationship UNLIKELY: 0
  Number of Subjects with COUGH, relationship UNLIKELY: 0
  Number of Subjects with DIZZINESS, relationship POSSIBLE: 2
  Number of Subjects with DIZZINESS, relationship PROBABLE: 0
  Number of Subjects with DIZZINESS, relationship UNLIKELY: 0
  Number of Subjects with DRY THROAT, relationship POSSIBLE: 1
  Number of Subjects with DRY THROAT, relationship PROBABLE: 0
  Number of Subjects with DRY THROAT, relationship UNLIKELY: 0
  Number of Subjects with DYSPNOEA, relationship POSSIBLE: 0
  Number of Subjects with DYSPNOEA, relationship PROBABLE: 1
  Number of Subjects with DYSPNOEA, relationship UNLIKELY: 0
  Number of Subjects with HEADACHE, relationship PROBABLE: 0
  Number of Subjects with HEADACHE, relationship UNLIKELY: 0
  Number of Subjects with PHARYNG[…], relationship POSSIBLE: 1
  Number of Subjects with PHARYNG[…], relationship PROBABLE: 0
  Number of Subjects with PHARYNG[…], relationship UNLIKELY: 0
  Number of Subjects with PLEURITIC PAIN, relationship POSSIBLE: 0
  Number of Subjects with PLEURITIC PAIN, relationship PROBABLE: 1
  Number of Subjects with PLEURITIC PAIN, relationship UNLIKELY: 0
  Number of Subjects with SYNCOPE VASOVAGAL, relationship POSSIBLE: 1
  Number of Subjects with SYNCOPE VASOVAGAL, relationship PROBABLE: 0
  Number of Subjects with SYNCOPE VASOVAGAL, relationship UNLIKELY: 0
  Total treatment emergent adverse events: 27
  Vaso-vegal episode, duration: 14 min
  Vaso-vegal episode, time of occurrence after administration: 22 min
[3]; biochemistry, hematology, urinalysis
  Changes in laboratory parameters: no clinically-significant changes
[3]; both devices
  Serious Adverse Events (SAE's) or Suspected Unexpected Serious Adverse Reactions (SUSAR's): no Serious Adverse Events
[3]; for inhalation
  Tolerability in healthy subjects: well-tolerated
[3]; human, in vivo
  Changes in laboratory parameters, physical examination, vital signs, respiratory function or ECGs: no clinically-significant changes
[3]; human, in vivo, po
  Changes in vital signs (blood pressure, pulse and oral temperature): no clinically-significant changes
[3]; via AERx Essence
  Number of Subjects (% brackets) with […]: 0
[3]; via Nebu-Tec Optineb
  Number of Subjects (% brackets) with […]: 1 (7.1)
  Number of Subjects with […], relationship POSSIBLE: 0
  Number of Subjects with […], relationship PROBABLE: 0
  Number of Subjects with […], relationship UNLIKELY: 1
